Reference: patent US20090227587A1, “Pyrimidines as inhibitors of phosphoinositide-3-kinases (PI3K)” (Warner-Lambert Company LLC, priority 2003, published 2009)

Target: T1, p101/p110γ protein (PI3Kγ) (Homo sapiens, UniProt P48736)
T1 construct: HA; made in house; host or cells: Spodoptera frugiperda (Sf9) cells, baculovirus co-infection
Experiment: PI3Kγ in vitro kinase assay
Format: biochemical
Conditions: purified recombinant p101/p110γ with G protein β1/γ2 subunits, 20 μM ATP, PIP2 lipid micelles
Description: Spodtera frugiperda cells, grown in ESF921 media, were co-infected with baculovirus expressing a glu-tagged p101 and baculovirus expressing an HA-tagged p110γ, at a 3:1 ratio of p101 baculovirus to p110γ baculovirus. Sf9 cells were grown to 1×10^7 total cells/mL in 10 L bioreactors and harvested 48-72 hours post infection. Samples of infected cells were then tested for expression of p101/p110γ PI3 kinase by immunoprecipitation and Western Blot analysis methods (see below).
To purify PI3Kγ, 4 volumes of room temperature hypotonic lysis buffer (1 mM MgCl2, 1 mM DTT, 5 mM EGTA, 1 mM Pefabloc, 0.5 μM aprotinin, 5 μM leupeptin, 2 μM pepstatin, 5 μM E64, pH 8) per gram of cell paste, was poured onto frozen cell pellets with stirring, then lysed in a nitrogen “bomb” at 400 psi (599HC T316, Parr Instrument Co, Moline, Ill.). NaCl was added to 150 mM, and sodium cholate was added to 1% and mixed for another 45 minutes. The lysates were clarified by centrifugation for 25 minutes at 14,000 rpm. The lysates were then loaded over anti-glu-linked Protein-G Sepaharose beads (Covance Research Products, Richmond, Calif.) using 20 mL resin/50 g cell paste. The column was washed with 15 volumes of wash buffer (1 mM DTT, 0.2 mM EGTA, 1 mM Pefabloc, 0.5 μM aprotinin, 5 μM leupeptin, 2 μM pepstatin, 5 μM E64, 150 mM NaCl, 1% sodium cholate, pH 8). PI3Kγ was eluted with 6 column volumes of wash buffer that contain 100 μg/mL of a peptide that competes for binding of the glu tag. The column fractions with the eluted protein (determined by taking OD280 readings) were collected and dialyzed in 0.2 mM EGTA, 1 mM DTT, 1 mM Pefabloc, 5 μM leupeptin, 0.5% sodium cholate, 150 mM NaCl, and 50% glycerol, pH 8. The fractions were stored at −80° C. until further use.
Spodtera frugiperda cells were coinfected with baculovirus expressing a glu-tagged G protein β1 and baculovirus expressing a G protein […], at a 1:1 ratio of glu-tagged G protein […] baculovirus to G protein β2 baculovirus. Sf9 cells are grown in 10 L bioreactors and harvested 48-72 hours post infection. Samples of infected cells were tested for G protein β1/β2 expression by Western Blot analysis, as described below. Cell lysates were homogenized and loaded onto a column of glu-tagged beads as in Biological Example 1 and competed off the column with a glu peptide and processed as described in Biological Example 1.
The inhibitory properties of the compounds in Table 1 were assayed in an in vitro PI3K assay. In a 96-well polypropylene plate, each well was spotted with 2 μL of 50 times the desired final concentration of compound in DMSO. Purified recombinant p101/p110γ protein (0.03 μg; ˜2.7 nM) and G protein β1/γ2 subunits (0.09 μg; ˜57.7 nM) for each reaction was combined in the assay buffer (30 mM HEPES, 100 mM NaCl, 1 mM EGTA, and 1 mM DTT). ATP and [γ-^32P-ATP] (0.09 μCi) were added to this mixture so that the final ATP concentration in the reaction was 20 μM. Lipid micelles were formed by sonicating phosphatidylinositol-4,5-diphosphate (PIP2), phosphatidylethanolamine (PE), and Na-cholate in the assay buffer for 10 minutes, adding MgCl2 and incubating on ice for 20 minutes, for final concentrations of 25 μM PIP2, 300 μM PE, 0.02% Na-cholate, and 10 mM MgCl2 in the reaction. The reactions were started by adding equal volumes lipid and enzyme mixture in a total volume of 50 μL, allowed to run for 20 minutes at room temperature, and stopped with 100 μL 75 mM H3PO4. The lipid product was transferred to a glass fiber filter plate and washed with 75 mM H3PO4 several times. The presence of radioactive lipid product (PIP3) was measured by adding Wallac Optiphase mix to each well and counting in a Wallac 1450 Trilux plate reader (PerkinElmer Life Sciences Inc., Boston, Mass. 02118). The IC50 for each compound tested is reported in μM in the Tables above.

T1 sequence (P48736 whole entry, species assumed): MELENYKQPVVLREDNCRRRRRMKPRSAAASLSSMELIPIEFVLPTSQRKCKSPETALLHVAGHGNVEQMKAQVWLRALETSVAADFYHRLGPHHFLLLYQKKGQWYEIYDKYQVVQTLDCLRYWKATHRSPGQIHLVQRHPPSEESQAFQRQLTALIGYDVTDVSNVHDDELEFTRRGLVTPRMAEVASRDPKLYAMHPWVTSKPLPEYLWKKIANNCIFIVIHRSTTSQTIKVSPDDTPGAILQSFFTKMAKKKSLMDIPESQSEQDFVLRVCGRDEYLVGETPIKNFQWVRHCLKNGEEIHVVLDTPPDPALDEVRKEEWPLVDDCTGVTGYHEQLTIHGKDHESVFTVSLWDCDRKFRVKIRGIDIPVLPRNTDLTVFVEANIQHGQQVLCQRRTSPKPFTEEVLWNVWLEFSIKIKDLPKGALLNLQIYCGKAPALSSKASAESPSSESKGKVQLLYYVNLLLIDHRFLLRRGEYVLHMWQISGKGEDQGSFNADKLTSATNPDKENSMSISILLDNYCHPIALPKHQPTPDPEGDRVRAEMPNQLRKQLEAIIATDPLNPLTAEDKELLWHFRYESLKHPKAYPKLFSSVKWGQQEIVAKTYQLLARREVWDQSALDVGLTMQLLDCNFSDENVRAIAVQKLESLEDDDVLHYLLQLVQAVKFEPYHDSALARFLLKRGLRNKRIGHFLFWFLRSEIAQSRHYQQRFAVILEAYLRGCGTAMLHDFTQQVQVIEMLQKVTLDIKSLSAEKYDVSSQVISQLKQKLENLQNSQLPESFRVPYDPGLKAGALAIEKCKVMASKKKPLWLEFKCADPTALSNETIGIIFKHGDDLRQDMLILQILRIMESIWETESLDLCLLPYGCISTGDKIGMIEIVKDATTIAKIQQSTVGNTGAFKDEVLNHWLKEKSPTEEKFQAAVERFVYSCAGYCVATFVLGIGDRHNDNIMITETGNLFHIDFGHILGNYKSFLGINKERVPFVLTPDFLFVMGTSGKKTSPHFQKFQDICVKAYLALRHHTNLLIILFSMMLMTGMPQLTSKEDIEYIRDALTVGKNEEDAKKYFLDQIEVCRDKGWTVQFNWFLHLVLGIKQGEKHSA
T1 sequence (Q8WYR1 whole entry partner, species assumed): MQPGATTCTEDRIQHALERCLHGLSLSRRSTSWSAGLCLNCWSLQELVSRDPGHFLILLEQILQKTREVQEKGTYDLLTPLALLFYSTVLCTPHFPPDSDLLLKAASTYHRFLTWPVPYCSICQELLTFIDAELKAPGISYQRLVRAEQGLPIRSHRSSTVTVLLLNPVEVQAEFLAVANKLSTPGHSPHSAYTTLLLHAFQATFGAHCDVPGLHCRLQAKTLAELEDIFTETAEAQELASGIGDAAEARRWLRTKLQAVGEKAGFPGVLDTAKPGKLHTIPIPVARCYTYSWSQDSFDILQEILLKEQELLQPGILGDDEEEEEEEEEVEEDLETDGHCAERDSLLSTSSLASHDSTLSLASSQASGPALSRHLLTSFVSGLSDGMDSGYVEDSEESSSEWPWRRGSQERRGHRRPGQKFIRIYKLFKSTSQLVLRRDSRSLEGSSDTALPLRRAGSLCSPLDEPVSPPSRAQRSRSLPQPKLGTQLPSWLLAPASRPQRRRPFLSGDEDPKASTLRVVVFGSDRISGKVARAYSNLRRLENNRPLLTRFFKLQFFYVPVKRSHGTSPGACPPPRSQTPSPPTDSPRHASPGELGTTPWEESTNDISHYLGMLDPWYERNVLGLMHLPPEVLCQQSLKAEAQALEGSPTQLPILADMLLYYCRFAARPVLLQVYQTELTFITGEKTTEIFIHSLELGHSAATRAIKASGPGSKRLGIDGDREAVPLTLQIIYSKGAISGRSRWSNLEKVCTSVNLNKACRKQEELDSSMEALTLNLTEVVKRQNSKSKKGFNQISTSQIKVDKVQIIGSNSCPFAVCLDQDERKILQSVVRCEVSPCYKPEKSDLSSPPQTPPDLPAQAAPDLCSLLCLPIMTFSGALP

Compound	IC50
O=C(Nc1nn[nH]n1)c1cnc(N2CCOCC2)nc1OC1CCCC1 [Example 2, 4-Cyclopentyloxy-2-morpholin-4-yl-pyrimidine-5-carboxylic acid (2H-tetrazol-5-yl)-amide]	1540 nM
O=C(Nc1nn[nH]n1)c1cnc(N2CCOCC2)nc1OC1CCCCC1 [Example 4, 4-Cyclohexyloxy-2-morpholin-4-yl-pyrimidine-5-carboxylic acid (2H-tetrazol-5-yl)-amide]	1740 nM
O=C(Nc1nn[nH]n1)c1cnc(N2CCOCC2)nc1OC1CCCCCCC1 [Example 5, 4-Cyclooctyloxy-2-morpholin-4-yl-pyrimidine-5-carboxylic acid (2H-tetrazol-5-yl)-amide]	502 nM
O=C(Nc1nn[nH]n1)c1cnc(N2CCOCC2)nc1OCCC1CCCCC1 [Example 6, 4-(2-Cyclohexyl-ethoxy)-2-morpholin-4-yl-pyrimidine-5-carboxylic acid (2H-tetrazol-5-yl)-amide]	10100 nM
COCCOc1nc(N2CCOCC2)ncc1C(=O)Nc1nn[nH]n1 [Example 8, 4-(2-Methoxy-ethoxy)-Z-morpholin-4-yl-pyrimidine-5-carboxylic acid (2H-tetrazol-5-yl)-amide]	2320 nM
CC1(C)CCCC(Oc2nc(N3CCOCC3)ncc2C(=O)Nc2nn[nH]n2)C1 (stereo not drawn) [Example 9, 4-(3,3-Dimethyl-cyclohexyloxy)-2-morpholin-4-yl-pyrimidine-5-carboxylic acid (2H-tetrazol-5-yl)-amide]	1360 nM
O=C(Nc1nn[nH]n1)c1cnc(N2CCOCC2)nc1OC1CCOCC1 [Example 10, 2-Morpholin-4-yl-4-(tetrahydro-pyran-4-yloxy)-pyrimidine-5-carboxylic acid (2H-tetrazol-5-yl)-amide]	10500 nM
O=C(Nc1nn[nH]n1)c1cnc(N2CCOCC2)nc1OC1CC2CCC1C2 (stereo not drawn) [Example 12, 4-(Bicyclo[2.2.1]hept-2-yloxy)-2-morpholin-4-yl-pyrimidine-5-carboxylic acid (2H-tetrazol-5-yl)-amide]	845 nM
CC(C)C(C)Oc1nc(N2CCOCC2)ncc1C(=O)Nc1nn[nH]n1 (stereo not drawn) [Example 14, 4-(1,2-Dimethyl-propoxy)-2-morpholin-4-yl-pyrimidine-5-carboxylic acid (2H-tetrazol-5-yl)-amide]	1160 nM
CC1(COc2nc(N3CCOCC3)ncc2C(=O)Nc2nn[nH]n2)CC1 [Example 15, 4-(1-Methyl-cyclopropylmethoxy)-2-morpholin-4-yl-pyrimidine-5-carboxylic acid (2H-tetrazol-5-yl)-amide]	1690 nM
CC(C)c1ccc(Oc2nc(N3CCOCC3)ncc2C(=O)Nc2nn[nH]n2)cc1 [Example 17, 4-(4-Isopropyl-phenoxy)-2-morpholin-4-yl-pyrimidine-5-carboxylic acid (2H-tetrazol-5-yl)-amide]	805 nM
O=C(Nc1nnn[nH]1)c1cnc(N2CCOCC2)nc1NC1CCCCC1 [Example 21, 4-Cyclohexylamino-2-morpholin-4-yl-pyrimidine-5-carboxylic acid (1H-tetrazol-5-yl)-amide]	28600 nM
Cc1nc(N2CCOCC2)nc(OC2CCCCCC2)c1C(=O)Nc1nn[nH]n1 [Example 22, 4-Cycloheptyloxy-6-methyl-2-morpholin-4-yl-pyrimidine-5-carboxylic acid (2H-tetrazol-5-yl)-amide]	8440 nM

Further molecules by falling IC50, results first:

IC50	Compound
87500 nM	CC(C)Oc1nc(N2CCOCC2)ncc1C(=O)Nc1nn[nH]n1 [Example 3, 4-Isopropoxy-2-morpholin-4-yl-pyrimidine-5-carboxylic acid (2H-tetrazol-5-yl)-amide]
39100 nM	O=C(Nc1nnn[nH]1)c1cnc(N2CCOCC2)nc1NCc1ccccc1 [Example 20, 4-Benzylamino-2-morpholin-4-ylpyrimidine-5-carboxylic acid (1H-tetrazol-5-yl)-amide]
32700 nM	O=C(Nc1nnn[nH]1)c1cnc(N2CCOCC2)nc1NC1CCCC1 [Example 19, 4-Cyclopentylamino-2-morpholin-4-yl-pyrimidine-5-carboxylic acid (1H-tetrazol-5-yl)-amide]
2060 nM	CC(C)(C)COc1nc(N2CCOCC2)ncc1C(=O)Nc1nn[nH]n1 [Example 13, 4-(2,2-Dimethyl-propoxy)-2-morpholin-4-yl-pyrimidine-5-carboxylic acid (2H-tetrazol-5-yl)-amide]
1840 nM	O=C(Nc1nn[nH]n1)c1cnc(N2CCOCC2)nc1OCC1CCCCC1 [Example 7, 4-Cyclohexylmethoxy-2-morpholin-4-yl-pyrimidine-5-carboxylic acid (2H-tetrazol-5-yl)-amide]
485 nM	O=C(Nc1nn[nH]n1)c1cnc(N2CCOCC2)nc1OC1C2CC3CC(C2)CC1C3 (stereo not drawn) [Example 11, 4-(Adamantan-2-yloxy)-2-morpholin-4-yl-pyrimidine-5-carboxylic acid (2H-tetrazol-5-yl)-amide]
210 nM	CC1CC(C)CC(Oc2nc(N3CCOCC3)ncc2C(=O)Nc2nn[nH]n2)C1 (stereo not drawn) [Example 16, 4-(3,5-Dimethyl-cyclohexyloxy)-2-morpholin-4-yl-pyrimidine-5-carboxylic acid (2H-tetrazol-5-yl)-amide]
154 nM	O=C(Nc1nn[nH]n1)c1cnc(N2CCOCC2)nc1Oc1ccc(C2CCCCC2)cc1 [Example 18, 4-(4-Cyclohexyl-phenoxy)-2-morpholin-4-yl-pyrimidine-5-carboxylic acid (2H-tetrazol-5-yl)-amide]
